Test: In vitro brain homogenate binding
Assay type: in vitro ADME
Conditions: data not shown, read-out: fu,b (unbound fraction, brain homogenate)

fraction unbound: ~1
SMILES: Nc1nc(=O)n([C@H]2C[C@H](O)[C@@H](CO)O2)cc1F [FdCyd, 5-fluoro-2′-deoxycytidine]

— publication PMC4718940, “Preclinical studies of 5-fluoro-2′-deoxycytidine and tetrahydrouridine in pediatric brain tumors” (Journal of Neuro-Oncology, 2015)
